US7521441B2, “Cyclopropyl fused indolobenzazepine HCV NS5B inhibitors” (Bristol-Myers Squibb Company, priority 2006, dated 2009)
Read-outs that look alike come from different tables or passages of the source.

What was measured:
[1] = target: T1, HCV NS5B RdRp genotype 1b (Hepatitis C virus genotype 1b, UniProt Q9WMX2); test: Modified HCV NS5B RdRp enzyme assay (preincubation protocol); format: biochemical; conditions: HCV NS5B genotype 1b
T1 construct: The protein was expressed with an 18 amino acid C-terminal truncation to enhance the solubility; made in house; host or cells: E. coli BL21(DE3), pET21a vector
T1 sequence (Q9WMX2 2420-2992): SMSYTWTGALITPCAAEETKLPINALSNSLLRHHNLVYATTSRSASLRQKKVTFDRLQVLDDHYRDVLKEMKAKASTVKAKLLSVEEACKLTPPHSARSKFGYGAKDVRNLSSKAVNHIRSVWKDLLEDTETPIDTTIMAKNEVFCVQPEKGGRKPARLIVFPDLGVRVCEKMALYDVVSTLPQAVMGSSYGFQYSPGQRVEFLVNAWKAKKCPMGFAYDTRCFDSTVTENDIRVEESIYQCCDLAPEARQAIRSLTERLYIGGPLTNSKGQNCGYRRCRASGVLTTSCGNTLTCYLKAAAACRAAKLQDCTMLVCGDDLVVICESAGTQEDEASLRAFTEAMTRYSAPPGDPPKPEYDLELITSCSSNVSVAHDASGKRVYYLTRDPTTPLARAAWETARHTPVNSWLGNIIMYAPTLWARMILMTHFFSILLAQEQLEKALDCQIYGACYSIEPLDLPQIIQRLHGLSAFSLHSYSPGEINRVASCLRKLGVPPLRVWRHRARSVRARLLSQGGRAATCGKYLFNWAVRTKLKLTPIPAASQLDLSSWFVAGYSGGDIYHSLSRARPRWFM
Description: HCVNS5B RdRp cloning, expression, and purification. The cDNA encoding the NS5B protein of HCV, genotype 1b, was cloned into the pET21a expression vector. The protein was expressed with an 18 amino acid C-terminal truncation to enhance the solubility. The E. coli competent cell line BL21(DE3) was used for expression of the protein. Cultures were grown at 37° C. for ˜4 hours until the cultures reached an optical density of 2.0 at 600 nm. The cultures were cooled to 20° C. and induced with 1 mM IPTG. Fresh ampicillin was added to a final concentration of 50 μg/ml and the cells were grown overnight at 20° C.
Cell pellets (3L) were lysed for purification to yield 15-24 mgs of purified NS5B. The lysis buffer consisted of 20 mM Tris-HCl, pH 7.4, 500 mM NaCl, 0.5% triton X-100, 1 mM DTT, 1 mM EDTA, 20% glycerol, 0.5 mg/ml lysozyme, 10 mM MgCl2, 15 ug/ml deoxyribonuclease I, and Complete TM protease inhibitor tablets (Roche). After addition of the lysis buffer, frozen cell pellets were resuspended using a tissue homogenizer. To reduce the viscosity of the sample, aliquots of the lysate were sonicated on ice using a microtip attached to a Branson sonicator. The sonicated lysate was centrifuged at 100,000×g for 1 hr at 4° C. and filtered through a 0.2 μm filter unit (Corning).
The protein was purified using three sequential chromatography steps: Heparin sepharose CL-6B, polyU sepharose 4B, and Hitrap SP sepharose (Pharmacia). The chromatography buffers were identical to the lysis buffer but contained no lysozyme, deoxyribonuclease I, MgCl2 or protease inhibitor and the NaCl concentration of the buffer was adjusted according to the requirements for charging the protein onto the column. Each column was eluted with a NaCl gradient which varied in length from 5-50 column volumes depending on the column type. After the final chromatography step, the resulting purity of the enzyme is >90% based on SDS-PAGE analysis. The enzyme was aliquoted and stored at −80° C.
Standard HCVNS5B RdRp enzyme assay. HCV RdRp genotype 1b assays were run in a final volume of 60 μl in 96 well plates (Costar 3912). The assay buffer is composed of 20 mM Hepes, pH 7.5, 2.5 mM KCl, 2.5 mM MgCl2, 1 mM DTT, 1.6 U RNAse inhibitor (Promega N2515), 0.1 mg/ml BSA (Promega R3961), and 2% glycerol. All compounds were serially diluted (3-fold) in DMSO and diluted further in water such that the final concentration of DMSO in the assay was 2%. HCV RdRp genotype 1b enzyme was used at a final concentration of 28 nM. A polyA template was used at 6 nM, and a biotinylated oligo-dT12 primer was used at 180 nM final concentration. Template was obtained commercially (Amersham 27-4110). Biotinylated primer was prepared by Sigma Genosys. 3H-UTP was used at 0.6 μCi (0.29 μM total UTP). Reactions were initiated by the addition of enzyme, incubated at 30° C. for 60 min, and stopped by adding 25 μl of 50 mM EDTA containing SPA beads (4 μg/μl, Amersham RPNQ 0007). Plates were read on a Packard Top Count NXT after >1 hr incubation at room temperature.
Modified HCVNS5B RdRp enzyme assay. A modified enzyme assay was performed essentially as described for the standard enzyme assay except for the following: The biotinylated oligo dT12 primer was precaptured on streptavidin-coated SPA beads by mixing primer and beads in assay buffer and incubating at room temperature for one hour. Unbound primer was removed after centrifugation. The primer-bound beads were resuspended in 20 mM Hepes buffer, pH 7.5 and used in the assay at final concentrations of 20 nM primer and 0.67 μg/μl beads. Order of addition in the assay: enzyme (14 nM) was added to diluted compound followed by the addition of a mixture of template (0.2 nM), 3H-UTP (0.6 μCi, 0.29 μM), and primer-bound beads, to initiate the reaction; concentrations given are final. Reactions were allowed to proceed for 4 hours at 30° C.
IC50 values for compounds were determined using seven different [I]. […]

HCV replicon cells = test: HCV replicon FRET assay; format: cell-based
From the text: FRET Assay Preparation. To perform the HCV FRET screening assay, 96-well cell culture plates were used. The FRET peptide (Anaspec, Inc.) (Taliani et al., Anal. Biochem. 1996, 240, 60-67) contains a fluorescence donor, EDANS, near one end of the peptide and an acceptor, DABCYL, near the other end. The fluorescence of the peptide is quenched by […] resonance energy transfer (RET) between the donor and the acceptor, but as the NS3 protease cleaves the peptide the products are released from RET quenching and the fluorescence of the donor becomes apparent. The assay reagent was made as follows: 5× cell Luciferase cell culture lysis reagent from Promega (#E153A) diluted to 1× with dH2O, NaCl added to 150 mM final, the FRET peptide diluted to 20 uM final from a 2 mM stock.
To prepare plates, HCV replicon cells, with or without a Renilla luciferase reporter gene, were trypsinized and placed into each well of a 96-well plate with titrated test compounds added in columns 3 through 12; columns 1 and 2 contained a control compound (HCV protease inhibitor), and the bottom row contained cells without compound. The plates were then placed in a CO2 incubator at 37° C.
Assays. Subsequent to addition of the test compounds described above (FRET Assay Preparation), at various times the plate was removed and Alamar blue solution (Trek Diagnostics, #00-100) was added per well as a measure of cellular toxicity. After reading in a Cytoflour 4000 instrument (PE Biosystems), plates were rinsed with PBS and then used for FRET assay by the addition of 30 ul of the FRET peptide assay reagent described above (FRET Assay Preparation) per well. The plate was then placed into the Cytoflour 4000 instrument which had been set to 340 excite/490 emission, automatic mode for 20 cycles and the plate read in a kinetic mode. Typically, the signal to noise using an endpoint analysis after the reads was at least three-fold. Alternatively, after Alamar blue reading, plates were rinsed with PBS, 50 ul of DMEM (high glucose) without phenol red was added and plates were then used for luciferase assay using the Promega Dual-Glo Luciferase Assay System.
Compound analysis was determined by quantification of the relative HCV replicon inhibition and the relative cytotoxicity values. To calculate cytoxicity values, the average Alamar Blue fluorescence signals from the control wells were set as 100% non-toxic. The individual signals in each of the compound test wells were then divided by the average control signal and multiplied by 100% to determine […]. To calculate the HCV replicon inhibition values, an average background value was obtained from the two wells containing the highest amount of HCV protease inhibitor at the end of the assay period. These numbers were similar to those obtained from naïve Huh-7 cells.
The background numbers were then subtracted from the average signal obtained from the control wells and this number was used as 100% activity. The individual signals in each of the compound test wells were then divided by the averaged control values after background subtraction and multiplied by 100% to determine percent activity. EC50 values for a protease inhibitor titration were calculated as the concentration which caused a 50% reduction in FRET or luciferase activity. The two numbers generated for the compound plate, percent cytoxicity and percent activity were used to determine compounds of interest for further analysis.

[2] = Hepatitis C virus, FRET assay, HCV replicon cells, read-out: EC50

| Structure (SMILES) | IC50 [1] | EC50 (HCV replicon cells; [2]) | EC50 (HCV replicon cells; Hepatitis C virus) | EC50 (HCV replicon cells; FRET assay, HCV replicon cells, read-out: EC50) |
| --- | --- | --- | --- | --- |
| C[C@@H]1CN(C(=O)C23CC2c2cc(O)ccc2-c2c(C4CCCCC4)c4ccc(C(=O)NS(=O)(=O)N(C)C)cc4n2C3)C[C@H](C)N1C (stereo partly shown) | 1 to 500 nM | 1 to 500 nM |  |  |
| C[C@@H]1CN(C(=O)C23CC2c2cc(OCc4ccccc4)ccc2-c2c(C4CCCCC4)c4ccc(C(=O)NS(=O)(=O)N(C)C)cc4n2C3)C[C@H](C)N1C (stereo partly shown) | 1 to 500 nM | 1 to 500 nM |  |  |
| COc1ccc2c(c1)C1CC1(C(=O)N1C[C@@H](C)N(C(C)C)[C@@H](C)C1)Cn1c-2c(C2CCCCC2)c2ccc(C(=O)NS(=O)(=O)N(C)C)cc21 (stereo partly shown) | 1 to 500 nM | 1 to 500 nM |  |  |
| COc1ccc2c(c1)C1CC1(C(=O)N1C[C@@H](C)N(C)[C@@H](C)C1)Cn1c-2c(C2CCCCC2)c2ccc(C(=O)NS(=O)(=O)C3CC3)cc21 (stereo partly shown) | 1 to 500 nM | 1 to 500 nM |  |  |
| COc1ccc2c(c1)C1CC1(C(=O)N1C[C@@H](C)N(C)[C@@H](C)C1)Cn1c-2c(C2CCCCC2)c2ccc(C(=O)NS(=O)(=O)N(C)C)cc21 (stereo partly shown) | 1 to 500 nM |  | 1 to 500 nM |  |
| COc1ccc2c(c1)[C@@H]1C[C@]1(C(=O)N1C[C@@H](C)N(C)[C@@H](C)C1)Cn1c-2c(C2CCCCC2)c2ccc(C(=O)NS(=O)(=O)N(C)C)cc21 | 1 to 500 nM |  | 1 to 500 nM |  |
| COc1ccc2c(c1)[C@H]1C[C@@]1(C(=O)N1C[C@@H](C)N(C)[C@@H](C)C1)Cn1c-2c(C2CCCCC2)c2ccc(C(=O)NS(=O)(=O)N(C)C)cc21 | 1 to 500 nM |  | 1 to 500 nM |  |
| COc1cccc2c1C1CC1(C(=O)N1C[C@@H](C)N(C)[C@@H](C)C1)Cn1c-2c(C2CCCCC2)c2ccc(C(=O)NS(=O)(=O)N(C)C)cc21 (stereo partly shown) | 1 to 500 nM | 1 to 500 nM |  |  |
| COc1ccc2c(c1)C1CC1(C(=O)N1C[C@@H](C)N(C(C)=O)[C@@H](C)C1)Cn1c-2c(C2CCCCC2)c2ccc(C(=O)NS(=O)(=O)N(C)C)cc21 (stereo partly shown) | 1 to 500 nM |  | 1 to 500 nM |  |
| COc1ccc2c(c1)C1CC1(C(=O)N1C[C@@H](C)N(C)[C@@H](C)C1)Cn1c-2c(C2CCCCC2)c2ccc(C(=O)NS(=O)(=O)N3CCC3)cc21 (stereo partly shown) | 1 to 500 nM | 1 to 500 nM |  |  |
| COc1ccc2c(c1)C1CC1(C(=O)N1[C@H](C)CN(Cc3ccccc3)C[C@@H]1C)Cn1c-2c(C2CCCCC2)c2ccc(C(=O)NS(=O)(=O)N(C)C)cc21 (stereo partly shown) | 1000 to 10000 nM | 500 to 1000 nM |  |  |
| COc1ccc2c(c1)C1CC1(C(=O)N1C[C@@H](C)N(C)[C@@H](C)C1)Cn1c-2c(C2CCCCC2)c2ccc(C(=O)NS(=O)(=O)C(C)C)cc21 (stereo partly shown) | 1 to 500 nM | 1 to 500 nM |  |  |
| COc1ccc2c(c1)C1CC1(C(=O)N1C[C@@H](C)N(C)[C@@H](C)C1)Cn1c-2c(C2CCCCC2)c2ccc(C(=O)NS(C)(=O)=O)cc21 (stereo partly shown) [drawing 31] | 1 to 500 nM | 1 to 500 nM |  |  |
| COc1ccc2c(c1)C1CC1(C(=O)N1C[C@@H](C)N(C)[C@@H](C)C1)Cn1c-2c(C2CCCCC2)c2ccc(C(=O)NS(C)(=O)=O)cc21 (stereo partly shown) [drawing 34] | 1 to 500 nM |  |  | 1 to 500 nM |
